What was measured:
[1] = test system: Vitamin B12 deficiency (Cbl−/− diet) mouse model; assay: Vitamin B12 deficiency mouse model: bone marrow immunophenotyping (M1/M2 macrophages); format: in vivo, C57BL/6 mice; details: 50 mpk IP BID; for Ratio of M1/M2 macrophages in bone marrow: mice on the cbl−/− diet (untreated: M1/M2 ratio of 6); for Ratio of M1/M2 macrophages compared with mice on a control diet: mice on the cbl−/− diet
Method: (§1) A vitamin B12 deficiency mouse model was used following the methods described at Ghosh et al 2016.
(§2) Animal maintenance and feeding. Female weanling C57BL/6 mice (n=65) were obtained at 3 weeks of age from Shanghai Sippe-Bk Lab Animal Co., Ltd. The mice were housed in a SPF environment and maintained at 20° C.±6, under standard lighting conditions (12-h light/dark cycle). Animals were divided into 5 animals per cage during modelling, and 3 animals per cage during compound test. The 3-week old mice were fed ad libitum with either AIN-76A control diet (D10001i) designated as control diet group or the same diet deficient in vitamin B12 (D07012902) with pectin as the source of fiber (designated as Cbl−/− cobalamin deficient) referred to as B12R+ by Ghosh et al. (Research Diets Inc., New Brunswick, N.J., USA). Cobalamin-restricted diet with pectin (B12R+) contained 50 g pectin/kg diet, because it has been shown earlier that pectin binds the intrinsic factor in the intestine and makes vitamin B12 less bioavailable. The control diet contained 50 g cellulose/kg diet as the fiber source instead of pectin. The mice also had ad libitum access to deionized water. Food intake and body weights were recorded every week.
Compound treatment. After 6 weeks of feeding on either control or Cbl−/− diet, 9-week-old mice on Cbl−/− diet were randomly assigned into 5 groups with 3 mice per group per treatment. Mice in each group were IP treated with vehicle (1% HPBCD, Sigma, H107) or were dosed at 50 mpk with Compound 1 or Compound 410 BID. One group of mice were sacrificed at 24h after the first dose. 2nd group of mice were sacrificed at 72h after the first dose. 3rd group of mice were sacrificed after 168h (i.e 7 days) after the first dose. 4th group of mice were fasted for 12h before sacrificing after 72h of the first dose. 5th group of mice were first fasted for 12h before any vehicle or compound treatment and sacrificed after 72h after the first dose.
Tissue and sample collection. At above specified timepoints, mice were weighed and anesthetized with CO2 before sample collection. For blood collection, the chest was opened to expose the heart. Up to 300 μl blood was drawn from the left ventricle with 1 ml syringe rinsed with EDTA-Na and dispensed into a K3EDTA mini collect tube (Greiner Bio-One) for haematology analysis. Then a new syringe was used to draw remaining blood from heart as much as possible. Serum was isolated by centrifugation at 5000 rpm for 10 min, aliquoted and kept at −80° C. until further use. For tissue collection after blood was drawn, mice were perfused with ice cold saline from the left ventricle. Heart, liver, kidney, spleen, brain was weighed after isolation. Then left leg was kept in ice cold PBS and bone marrow was isolated for further immunophenotype analysis. […]

[2] = test system: Vitamin B12 deficiency (Cbl−/− diet) mouse model; assay: Vitamin B12 deficiency mouse model: muscle strength by grip test; format: in vivo, mice; details: after 17 days of 50 mpk QD, IP
Method: Mice at 18 weeks of age were either fed on control diet (n=12 mice) or cbl−/− diet (n=30 mice) for 15 weeks. Grip strength test was measured by using a Grip Strength test meter for mice and rats (Jiangsu, SANS Biological Technology, CO. LTD, SA417) and recorded as day zero grip strength analysis. Briefly, machine was turned on (push peak) and calibrated to zero. Front leg strength was measured by pulling the mice away from the bar by holding the tail of the mice. Total 5 values were measured for each mouse. After the measurement the cbl−/− mice were divided into three groups of N=10 mice per group. Each group received either vehicle (0.1% saline) or Compound 410 or Compound 500, IP at the dose of 50 mpk QD. […]

[3] = test system: Vitamin B12 deficiency (Cbl−/− diet) mouse model; assay: Vitamin B12 deficiency mouse model: liver protein determination (ELISA, TNFα, protein carbonyls); format: in vivo, C57BL/6 mice
Method: as §1, §2
Compound treatment. After 6 weeks of feeding on either control or Cbl−/− diet, 9-week-old mice on Cbl−/− diet were randomly assigned into 5 groups with 3 mice per group per treatment. […]

Row | Compound | Ratio of M1/M2 macrophages in bone marrow [1] | Ratio of M1/M2 macrophages compared with mice on a control diet [1] | Grip strength ([2]; mice on the cbl−/− diet (36.5 g; control diet 59 g)) [g] | Recovery of grip strength ([2]; mice on the cbl−/− diet) | Protein Carbonyl in liver homogenates ([3]; mice on the cbl−/− diet (untreated 25.4 pg/ug; control diet 16.6 pg/ug)) [pg/µg] | TNF-α in liver homogenates ([3]; mice on the cbl−/− diet (untreated 171.8 pg/ug; control diet 121.46 pg/ug)) [pg/µg]
1 | CC(C)(CO)[C@@H](O)C(=O)NCCC(=O)NCCSC(=O)CCC(=O)O [Compound 1, (R)-4-((2-(3-(2,4-dihydroxy-3,3-dimethylbutanamido)propanamido)ethyl)thio)-4-oxobutanoic acid] | 3.967 | statistically indistinguishable |  |  |  | 
2 | COC(=O)CC(C(C)=O)C(=O)SCCNC(=O)CCNC(=O)[C@H](O)C(C)(C)CO (some centres unmarked) [Compound 410] | 3.87 | statistically indistinguishable | 57.7 | recovered grip strength to near the level of mice on the control diet | 11.1 | 62

From patent publication US20230107216A1, “PANTETHEINE DERIVATIVES AND USES THEREOF” (Comet Therapeutics, Inc., priority 2018, published 2023)
